The experiment has as its target T1, reconstituted ATase (ATN6-ATC3 complex) (Escherichia coli, UniProt P30870).
T1 sequence (P30870 1-608): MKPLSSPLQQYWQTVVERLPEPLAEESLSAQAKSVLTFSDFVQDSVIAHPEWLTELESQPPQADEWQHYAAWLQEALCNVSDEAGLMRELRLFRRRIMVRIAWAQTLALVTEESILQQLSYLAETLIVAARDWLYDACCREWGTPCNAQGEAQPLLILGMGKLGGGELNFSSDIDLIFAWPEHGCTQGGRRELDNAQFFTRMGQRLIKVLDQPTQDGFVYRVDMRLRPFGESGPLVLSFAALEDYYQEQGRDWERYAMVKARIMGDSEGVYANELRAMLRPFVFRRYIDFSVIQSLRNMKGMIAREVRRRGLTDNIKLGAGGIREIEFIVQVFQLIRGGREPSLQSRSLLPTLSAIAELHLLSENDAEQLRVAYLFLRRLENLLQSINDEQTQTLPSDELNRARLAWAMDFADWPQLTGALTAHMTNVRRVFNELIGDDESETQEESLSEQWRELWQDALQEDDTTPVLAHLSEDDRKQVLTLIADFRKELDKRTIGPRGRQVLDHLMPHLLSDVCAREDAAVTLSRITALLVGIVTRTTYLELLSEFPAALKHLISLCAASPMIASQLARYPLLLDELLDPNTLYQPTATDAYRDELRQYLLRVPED
T1 sequence (P30870 609-946 partner): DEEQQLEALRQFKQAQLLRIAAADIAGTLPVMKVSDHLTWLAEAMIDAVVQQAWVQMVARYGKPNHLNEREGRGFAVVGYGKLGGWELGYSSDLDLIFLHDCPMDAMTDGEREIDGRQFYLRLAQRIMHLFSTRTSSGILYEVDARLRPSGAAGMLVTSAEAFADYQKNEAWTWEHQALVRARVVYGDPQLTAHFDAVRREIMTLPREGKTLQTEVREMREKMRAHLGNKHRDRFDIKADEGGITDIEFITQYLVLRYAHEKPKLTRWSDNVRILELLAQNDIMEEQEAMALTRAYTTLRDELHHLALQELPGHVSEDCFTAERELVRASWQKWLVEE
Briefly: initial rate of GS adenylylation, […] incorporation from [alpha-32P]ATP. In kind it is biochemical.

Structures are written as SMILES.

As a reminder, the EC50 is the concentration needed to bring the measured effect to its halfway point. Read a low EC50 as a more potent agent. In the case of `NC(=O)CC[C@H](N)C(=O)O` [glutamine], the EC50 is approximately 7 mM.

The values are drawn from PMC2651632 (Biochemistry, 2008).
